Reference: US20110230481A2, “DERIVATIVES OF TETRABROMOBENZIMIDAZOLE, A PROCESS FOR THE PREPARATION THEREOF, A PHARMACEUTICAL COMPOSITION COMPRISING THE SAME, A METHOD OF USING THE SAME, A METHOD FOR MODULATING OR REGULATING SERINE/THREONINE KINASES, AND SERINE/THREONINE KINASES MODULATING AGENT” (SELVITA S.A., priority 2009, published 2011)

How the values were obtained:
Test in all cases: KINOMEscan Max
Format in all cases: binding
AKT1 = molecular target: T1, AKT1 (Homo sapiens, UniProt P31749)
T1 construct: purchased Ambit (KINOMEscan Max service)
Procedure, shortened: (§1)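 Steps: mix DNA-tagged kinase, immobilized active-site ligand and compound; let compound compete with ligand for the kinase; quantify the kinase retained by qPCR on its DNA tag.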

AKT3 = molecular target: T2, AKT3 (Homo sapiens, UniProt Q9Y243)
T2 construct: purchased Ambit (KINOMEscan Max service)
T2 sequence (Q9Y243 whole entry): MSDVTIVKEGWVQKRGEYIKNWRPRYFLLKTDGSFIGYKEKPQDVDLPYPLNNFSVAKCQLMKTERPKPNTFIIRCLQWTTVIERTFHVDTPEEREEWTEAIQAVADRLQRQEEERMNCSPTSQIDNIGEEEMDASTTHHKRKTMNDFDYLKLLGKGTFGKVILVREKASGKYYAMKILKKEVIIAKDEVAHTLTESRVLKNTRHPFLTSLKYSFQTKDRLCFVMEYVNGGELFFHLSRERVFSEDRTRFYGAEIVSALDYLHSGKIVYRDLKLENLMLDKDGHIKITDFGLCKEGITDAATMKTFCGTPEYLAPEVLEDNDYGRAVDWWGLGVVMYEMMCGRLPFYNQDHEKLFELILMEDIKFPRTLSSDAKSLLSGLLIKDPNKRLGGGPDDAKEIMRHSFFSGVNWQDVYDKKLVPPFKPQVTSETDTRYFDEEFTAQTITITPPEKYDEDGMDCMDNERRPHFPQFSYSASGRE
Procedure, shortened: as §1

CDK9 = molecular target: T3, CDK9 (Homo sapiens, UniProt P50750)
T3 construct: DNA tag (qPCR read-out)
Procedure, shortened: as §1

CDKL5 = molecular target: T4, CDKL5 (Homo sapiens, UniProt O76039)
T4 construct: DNA tag (qPCR read-out)
Procedure, shortened: as §1

DAPK1 = molecular target: T5, DAPK1 (Homo sapiens, UniProt P53355)
T5 construct: DNA tag (qPCR read-out)
Procedure, shortened: as §1

DCAMKL2 = molecular target: T6, DCAMKL2 (Homo sapiens, UniProt Q8N568)
T6 construct: purchased Ambit (KINOMEscan Max panel service)
Procedure, shortened: as §1

EGFR(L858R.T790M) = molecular target: T7, EGFR(L858R.T790M) (Homo sapiens, UniProt P00533, L858R/T790M); details: 1 μM
T7 construct: purchased Ambit (KINOMEscan Max panel service)
Procedure, shortened: as §1

EPHA4 = molecular target: T8, EPHA4 (Homo sapiens, UniProt P54764)
T8 construct: purchased Ambit (KINOMEscan Max panel service)
Procedure, shortened: as §1

EPHB3 = molecular target: T9, EPHB3 (Homo sapiens, UniProt P54753)
T9 construct: DNA tag (qPCR read-out)
Procedure, shortened: as §1

EPHB6 = EPHB6 (Homo sapiens, UniProt O15197)
Chain of EPHB6 (O15197 32-1021): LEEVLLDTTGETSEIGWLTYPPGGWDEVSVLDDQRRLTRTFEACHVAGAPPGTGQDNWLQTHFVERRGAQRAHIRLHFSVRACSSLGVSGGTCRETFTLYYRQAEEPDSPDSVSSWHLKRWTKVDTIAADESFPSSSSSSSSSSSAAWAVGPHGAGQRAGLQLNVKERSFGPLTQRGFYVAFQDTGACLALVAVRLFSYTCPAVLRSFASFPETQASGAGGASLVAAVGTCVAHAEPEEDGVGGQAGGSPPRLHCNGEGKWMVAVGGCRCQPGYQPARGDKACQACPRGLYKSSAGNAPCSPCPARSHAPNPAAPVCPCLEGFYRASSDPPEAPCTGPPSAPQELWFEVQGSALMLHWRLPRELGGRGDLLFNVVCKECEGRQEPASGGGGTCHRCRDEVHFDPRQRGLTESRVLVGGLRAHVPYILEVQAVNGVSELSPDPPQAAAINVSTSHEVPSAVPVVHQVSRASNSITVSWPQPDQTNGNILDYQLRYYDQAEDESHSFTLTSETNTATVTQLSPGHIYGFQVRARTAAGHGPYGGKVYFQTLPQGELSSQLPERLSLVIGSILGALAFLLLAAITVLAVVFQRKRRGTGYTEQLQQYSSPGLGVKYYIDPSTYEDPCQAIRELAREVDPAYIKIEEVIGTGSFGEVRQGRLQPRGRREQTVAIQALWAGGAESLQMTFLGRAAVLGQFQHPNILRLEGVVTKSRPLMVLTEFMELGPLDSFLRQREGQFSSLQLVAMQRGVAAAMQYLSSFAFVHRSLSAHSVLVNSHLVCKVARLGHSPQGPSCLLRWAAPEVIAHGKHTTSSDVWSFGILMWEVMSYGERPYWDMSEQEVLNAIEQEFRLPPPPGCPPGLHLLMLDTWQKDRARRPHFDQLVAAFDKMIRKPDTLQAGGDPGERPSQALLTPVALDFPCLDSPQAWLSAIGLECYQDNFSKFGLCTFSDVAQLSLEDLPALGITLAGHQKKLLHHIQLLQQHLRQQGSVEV
Procedure, shortened: as §1

FGR = molecular target: T10, FGR (Homo sapiens, UniProt P09769)
T10 construct: purchased Ambit Kinomescan (contract panel, KINOMEscan Max)
Procedure, shortened: as §1

FLT3(D835Y) = molecular target: T11, FLT3(D835Y) (Homo sapiens, UniProt P36888, D835Y)
T11 construct: DNA tag (qPCR read-out); purchased Ambit Kinomescan
Procedure, shortened: as §1

FLT3(N841I) = molecular target: T12, FLT3(N841I) (Homo sapiens, UniProt P36888, N841I)
T12 construct: purchased Ambit (KINOMEscan Max service)
Procedure, shortened: as §1

HIPK2 = molecular target: T13, HIPK2 (Homo sapiens, UniProt Q9H2X6)
T13 construct: DNA tag (qPCR read-out); purchased Ambit Kinomescan
Procedure, shortened: as §1

HIPK3 = molecular target: T14, HIPK3 (Homo sapiens, UniProt Q9H422)
T14 construct: DNA tag (qPCR read-out); purchased Ambit Kinomescan
Procedure, shortened: as §1

MAPKAPK2 = molecular target: T15, MAPKAPK2 (Homo sapiens, UniProt P49137)
T15 construct: purchased Ambit Kinomescan (contract panel)
T15 sequence (P49137 whole entry): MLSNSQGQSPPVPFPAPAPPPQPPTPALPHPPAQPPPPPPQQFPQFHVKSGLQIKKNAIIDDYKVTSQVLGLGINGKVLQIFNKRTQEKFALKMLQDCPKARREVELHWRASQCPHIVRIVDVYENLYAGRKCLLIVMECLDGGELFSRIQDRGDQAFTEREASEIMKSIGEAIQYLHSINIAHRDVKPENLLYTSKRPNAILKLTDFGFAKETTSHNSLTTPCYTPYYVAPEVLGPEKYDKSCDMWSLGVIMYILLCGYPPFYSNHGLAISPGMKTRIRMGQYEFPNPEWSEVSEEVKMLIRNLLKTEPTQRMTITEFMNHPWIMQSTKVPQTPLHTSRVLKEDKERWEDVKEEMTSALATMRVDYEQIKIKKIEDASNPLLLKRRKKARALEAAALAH
Procedure, shortened: as §1

MARK2 = MARK2 (Homo sapiens, UniProt Q7KZI7)
Procedure, shortened: as §1

MEK6 = MEK6 (Homo sapiens, UniProt P52564)
Chain of MEK6 (P52564 whole entry): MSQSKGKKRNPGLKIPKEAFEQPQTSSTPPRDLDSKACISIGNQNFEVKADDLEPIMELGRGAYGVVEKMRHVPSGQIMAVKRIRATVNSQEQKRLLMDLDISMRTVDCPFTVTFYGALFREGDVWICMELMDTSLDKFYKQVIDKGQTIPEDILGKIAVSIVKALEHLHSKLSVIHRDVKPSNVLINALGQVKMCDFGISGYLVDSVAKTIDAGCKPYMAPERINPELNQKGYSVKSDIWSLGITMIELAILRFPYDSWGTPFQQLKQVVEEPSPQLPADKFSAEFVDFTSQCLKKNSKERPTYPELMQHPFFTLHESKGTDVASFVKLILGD
Procedure, shortened: as §1

MST4 = molecular target: T16, MST4 (Homo sapiens, UniProt Q9P289)
T16 construct: DNA tag (qPCR read-out)
Procedure, shortened: as §1

NEK9 = NEK9 (Homo sapiens, UniProt Q8TD19)
Procedure, shortened: as §1

PDPK1 = molecular target: T17, PDPK1 (Homo sapiens, UniProt O15530)
T17 construct: purchased Ambit (KINOMEscan Max service)
Procedure, shortened: as §1

PIK3C2G = molecular target: T18, PIK3C2G (Homo sapiens, UniProt O75747)
T18 construct: DNA tag (qPCR read-out)
Procedure, shortened: as §1

PRKCI = molecular target: T19, PRKCI (Homo sapiens, UniProt P41743)
T19 construct: DNA tag (qPCR read-out)
T19 sequence (P41743 whole entry): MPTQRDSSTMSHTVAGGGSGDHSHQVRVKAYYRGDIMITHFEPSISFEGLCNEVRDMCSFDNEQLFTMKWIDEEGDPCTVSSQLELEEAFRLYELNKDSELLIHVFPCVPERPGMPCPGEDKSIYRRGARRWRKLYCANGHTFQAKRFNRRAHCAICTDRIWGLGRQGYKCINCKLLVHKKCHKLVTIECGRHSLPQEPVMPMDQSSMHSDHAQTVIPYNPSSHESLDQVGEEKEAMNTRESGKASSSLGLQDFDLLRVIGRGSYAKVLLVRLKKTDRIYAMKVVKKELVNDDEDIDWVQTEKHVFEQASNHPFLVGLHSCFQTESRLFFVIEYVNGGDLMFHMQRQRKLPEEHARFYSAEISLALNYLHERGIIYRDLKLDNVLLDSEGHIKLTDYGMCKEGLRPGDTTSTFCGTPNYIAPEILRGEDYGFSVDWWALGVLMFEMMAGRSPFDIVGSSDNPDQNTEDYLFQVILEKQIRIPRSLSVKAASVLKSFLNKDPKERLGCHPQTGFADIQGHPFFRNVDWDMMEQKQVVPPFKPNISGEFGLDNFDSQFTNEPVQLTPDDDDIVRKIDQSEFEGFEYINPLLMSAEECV
Procedure, shortened: as §1

PRKD1 = molecular target: T20, PRKD1 (Homo sapiens, UniProt Q15139)
T20 construct: DNA tag (qPCR read-out)
Procedure, shortened: as §1

PRKD3 = molecular target: T21, PRKD3 (Homo sapiens, UniProt O94806)
T21 construct: DNA tag (qPCR read-out)
Procedure, shortened: as §1

QSK = molecular target: T22, QSK (Homo sapiens, UniProt Q9Y2K2); details: 1 μM
T22 construct: DNA tag (qPCR read-out)
Procedure, shortened: as §1

[1] = molecular target: T23, RSK3(Kin.Dom.2-C-terminal) (Homo sapiens, UniProt Q15349)
T23 construct: RSK3(Kin.Dom.2-C-terminal); purchased Ambit Kinomescan (contract screening)
T23 sequence (Q15349 415-672 limits assumed): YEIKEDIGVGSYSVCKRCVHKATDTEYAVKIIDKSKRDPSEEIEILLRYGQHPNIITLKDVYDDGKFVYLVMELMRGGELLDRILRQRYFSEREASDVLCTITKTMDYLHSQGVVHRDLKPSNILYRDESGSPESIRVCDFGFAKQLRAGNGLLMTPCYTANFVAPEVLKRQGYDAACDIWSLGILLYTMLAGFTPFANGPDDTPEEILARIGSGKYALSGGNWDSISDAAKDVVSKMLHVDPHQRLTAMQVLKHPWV
Procedure, shortened: as §1

TAOK2 = molecular target: T24, TAOK2 (Homo sapiens, UniProt Q9UL54)
T24 construct: DNA tag (qPCR read-out)
Procedure, shortened: as §1

ULK3 = molecular target: T25, ULK3 (Homo sapiens, UniProt Q6PHR2); details: 1 μM
T25 construct: purchased Ambit Kinomescan (contract screening service)
Procedure, shortened: as §1

WEE1 = WEE1 (Homo sapiens, UniProt P30291)
Procedure, shortened: as §1

WEE2 = molecular target: T26, WEE2 (Homo sapiens, UniProt P0C1S8)
T26 construct: purchased Ambit Kinomescan (contract screening service)
T26 sequence (P0C1S8 whole entry): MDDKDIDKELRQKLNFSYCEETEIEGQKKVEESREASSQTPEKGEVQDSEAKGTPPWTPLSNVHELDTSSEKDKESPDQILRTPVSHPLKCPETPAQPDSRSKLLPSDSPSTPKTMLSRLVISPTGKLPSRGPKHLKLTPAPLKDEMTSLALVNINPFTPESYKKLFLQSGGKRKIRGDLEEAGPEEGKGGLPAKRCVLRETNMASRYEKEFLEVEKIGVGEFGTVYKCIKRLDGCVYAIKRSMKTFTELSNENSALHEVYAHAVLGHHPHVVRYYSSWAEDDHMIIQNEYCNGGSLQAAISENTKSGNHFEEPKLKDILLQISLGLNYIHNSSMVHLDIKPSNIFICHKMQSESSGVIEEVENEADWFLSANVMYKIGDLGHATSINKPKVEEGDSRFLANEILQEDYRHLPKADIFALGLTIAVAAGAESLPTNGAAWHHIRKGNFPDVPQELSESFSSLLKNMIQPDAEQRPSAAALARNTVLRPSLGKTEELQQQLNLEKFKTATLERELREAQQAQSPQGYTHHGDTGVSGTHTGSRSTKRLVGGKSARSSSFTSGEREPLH
Procedure, shortened: as §1

YANK3 = YANK3 (Homo sapiens, UniProt Q86UX6)
Chain of YANK3 (Q86UX6 whole entry): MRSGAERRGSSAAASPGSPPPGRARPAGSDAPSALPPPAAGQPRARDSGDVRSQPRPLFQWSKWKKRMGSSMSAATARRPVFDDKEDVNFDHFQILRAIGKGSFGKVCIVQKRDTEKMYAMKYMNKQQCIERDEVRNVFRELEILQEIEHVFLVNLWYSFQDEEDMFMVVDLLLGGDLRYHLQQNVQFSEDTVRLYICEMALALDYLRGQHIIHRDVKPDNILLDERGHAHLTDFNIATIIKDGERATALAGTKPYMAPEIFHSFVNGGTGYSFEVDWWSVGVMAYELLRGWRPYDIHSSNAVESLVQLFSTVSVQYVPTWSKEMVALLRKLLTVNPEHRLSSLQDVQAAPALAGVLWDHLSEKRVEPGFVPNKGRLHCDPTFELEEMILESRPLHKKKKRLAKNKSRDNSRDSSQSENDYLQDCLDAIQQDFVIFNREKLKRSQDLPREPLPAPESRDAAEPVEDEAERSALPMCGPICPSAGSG
Procedure, shortened: as §1

YES = molecular target: T27, YES (Homo sapiens, UniProt P07947)
T27 construct: purchased Ambit Kinomescan (contract screening service)
T27 sequence (P07947 whole entry): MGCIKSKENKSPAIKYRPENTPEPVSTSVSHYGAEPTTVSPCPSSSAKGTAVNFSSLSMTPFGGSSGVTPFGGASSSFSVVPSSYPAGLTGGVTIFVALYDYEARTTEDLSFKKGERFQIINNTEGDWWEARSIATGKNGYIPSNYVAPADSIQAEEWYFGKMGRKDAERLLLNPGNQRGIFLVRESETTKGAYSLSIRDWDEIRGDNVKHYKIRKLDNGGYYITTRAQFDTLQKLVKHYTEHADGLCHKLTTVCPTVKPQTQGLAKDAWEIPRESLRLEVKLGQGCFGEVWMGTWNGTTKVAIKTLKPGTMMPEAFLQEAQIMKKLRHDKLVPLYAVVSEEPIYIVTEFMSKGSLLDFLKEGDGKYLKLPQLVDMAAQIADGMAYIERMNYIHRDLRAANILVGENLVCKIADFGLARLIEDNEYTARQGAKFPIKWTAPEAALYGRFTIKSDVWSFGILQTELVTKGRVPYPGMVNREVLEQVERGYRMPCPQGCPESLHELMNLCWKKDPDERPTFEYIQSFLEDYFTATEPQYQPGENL
Procedure, shortened: as §1

ZAP70 = molecular target: T28, ZAP70 (Homo sapiens, UniProt P43403)
T28 construct: purchased Ambit Kinomescan (contract screening service)
Procedure, shortened: as §1

NCCCNc1nc2c(Br)c(Br)c(Br)c(Br)c2[nH]1 [Compound 11, N-(3-aminopropyl)-4,5,6,7-tetrabromo-1H-benzo[d]imidazol-2-amine]
remaining binding at 1 µM (AKT1): 70% | remaining binding at 1 µM (AKT3): 83% | remaining binding at 1 µM (CDK9): 90% | remaining binding at 1 µM (CDKL5): 25% | remaining binding at 1 µM (DAPK1): 90% | remaining binding at 1 µM (DCAMKL2): 100% | % binding (EGFR(L858R.T790M)): 100% | remaining binding at 1 µM (EPHA4): 100% | remaining binding at 1 µM (EPHB3): 91% | remaining binding at 1 µM (EPHB6): 95% | remaining binding at 1 µM (FGR): 100% | remaining binding at 1 µM (FLT3(D835Y)): 10% | remaining binding at 1 µM (FLT3(N841I)): 81% | remaining binding at 1 µM (HIPK2): 0.8% | remaining binding at 1 µM (HIPK3): 1.5% | remaining binding at 1 µM (MAPKAPK2): 100% | remaining binding at 1 µM (MARK2): 94% | remaining binding at 1 µM (MEK6): 100% | remaining binding at 1 µM (MST4): 87% | remaining binding at 1 µM (NEK9): 95% | remaining binding at 1 µM (PDPK1): 84% | remaining binding at 1 µM (PIK3C2G): 100% | remaining binding at 1 µM (PRKCI): 100% | remaining binding at 1 µM (PRKD1): 28% | remaining binding at 1 µM (PRKD3): 27% | % binding (QSK): 100% | remaining binding at 1 µM [1]: 97% | remaining binding at 1 µM (TAOK2): 100% | % binding (ULK3): 100% | remaining binding at 1 µM (WEE1): 91% | remaining binding at 1 µM (WEE2): 100% | remaining binding at 1 µM (YANK3): 93% | remaining binding at 1 µM (YES): 100% | remaining binding at 1 µM (ZAP70): 100%
